Molecular target: T1, CCR2 (Homo sapiens, UniProt P41597)
T1 construct: host or cells: THP-1 human monocytic cells
Experiment: MCP-1 Receptor Binding Assay in THP-1 Cells (125I-MCP-1 displacement)
Conditions: 0.5 nM 125I labeled MCP-1, 2 hours at 30° C., read-out: CCR2 Binding, Inhibition of MCP-1 Binding IC50
Method: Compounds of the invention were subjected to various representative biological tests. The results of these tests are intended to illustrate the invention in a non-limiting fashion. MCP-1 Receptor Binding Assay in THP-1 Cells
Human monocytic cell line THP-1 cells were obtained from American Type Culture Collection (Manassas, Va., USA). The THP-1 cells were grown in RPMI-1640 (RPMI: Roswell Park Memorial Institute Medium-cell culture growth media) supplemented with 10% fetal bovine serum in a humidified 5% CO2 atmosphere at 37° C. The cell density was maintained […].
THP-1 (cells were incubated with 0.5 nM ^125I labeled MCP-1 (Perkin-Elmer Life Sciences, Inc. Boston, Mass.) in the presence of varying concentrations of either unlabeled MCP-1 (R & D Systems, Minneapolis, Minn.) or test compound for 2 hours at 30° C. in a 96 well plate. Cells were then harvested onto a filter plate, dried, and 20 μL of Microscint 20 was added to each well. Plates were counted in a TopCount NXT, Microplate Scintillation & Luminescence Counter (Perkin-Elmer Life Sciences, Inc. Boston, Mass.). Blank values (buffer only) were subtracted from all values and drug treated values were compared to vehicle treated values. 1 μM cold MCP-1 was used for nonspecific binding.
Table 1 lists IC50 values for inhibition of MCP-1 binding to CCR2 obtained for test compounds of the invention. Where an IC50 value was not obtained for a particular compound, the percent inhibition is provided at a test concentration of 25 μM.

T1 sequence (P41597 whole entry): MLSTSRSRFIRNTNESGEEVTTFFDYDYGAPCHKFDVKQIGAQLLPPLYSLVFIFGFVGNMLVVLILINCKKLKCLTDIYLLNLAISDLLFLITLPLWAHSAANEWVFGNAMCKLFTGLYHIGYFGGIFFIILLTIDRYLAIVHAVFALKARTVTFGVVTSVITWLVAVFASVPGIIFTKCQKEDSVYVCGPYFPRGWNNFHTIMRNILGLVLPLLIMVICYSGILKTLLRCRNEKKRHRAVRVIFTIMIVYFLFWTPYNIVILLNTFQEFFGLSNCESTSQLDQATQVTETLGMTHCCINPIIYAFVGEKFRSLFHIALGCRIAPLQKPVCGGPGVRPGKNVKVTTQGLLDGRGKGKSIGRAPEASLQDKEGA

First: N#Cc1ccc(=O)n(C2CCC(N3CC(NC(=O)CNC(=O)c4cccc(C(F)(F)F)c4)C3)CC2)c1 (stereo not drawn) [Example 10, N-({1-[4-(5-Cyano-2-oxo-2H-pyridin-1-yl)-cyclohexyl]-azetidin-3-ylcarbamoyl}-methyl)-3-trifluoromethyl-benzamide]
Second: Cc1ccc(=O)n(C2CCC(N3CC(NC(=O)CNC(=O)c4cccc(C(F)(F)F)c4)C3)CC2)c1 (stereo not drawn) [Example 11, N-({1-[4-(5-Methyl-2-oxo-2H-pyridin-1-yl)-cyclohexyl]-azetidin-3-ylcarbamoyl}-methyl)-3-trifluoromethyl-benzamide]
The IC50 of the first is 3.6-fold higher: 1000 nM for the first, 280 nM for the second. The second is the more potent here.

Going from COc1cccnc1OC1CCC(N2CC(NC(=O)CNC(=O)c3cccc(C(F)(F)F)c3)C2)CC1 (stereo not drawn) [Example 14, N-({1-[4-(3-Methoxy-pyridin-2-yloxy)-cyclohexyl]-azetidin-3-ylcarbamoyl}-methyl)-3-trifluoromethyl-benzamide] to Cc1ccnc(OC2CCC(N3CC(NC(=O)CNC(=O)c4cccc(C(F)(F)F)c4)C3)CC2)c1 (stereo not drawn) [Example 19, N-({1-[4-(4-Methyl-pyridin-2-yloxy)-cyclohexyl]-azetidin-3-ylcarbamoyl}-methyl)-3-trifluoromethyl-benzamide], the IC50 falls from 280 nM to 66 nM (4.2-fold).

Compared with O=C(CNC(=O)c1cccc(C(F)(F)F)c1)NC1CN(C2CCC(n3ccc(=O)cc3)CC2)C1 (stereo not drawn) [Example 16, N-({1-[4-(4-Oxo-4H-pyridin-1-yl)-cyclohexyl]-azetidin-3-ylcarbamoyl}-methyl)-3-trifluoromethyl-benzamide], Cc1ccn(C2CCC(N3CC(NC(=O)CNC(=O)c4cccc(C(F)(F)F)c4)C3)CC2)c(=O)c1 (stereo not drawn) [Example 20, N-({1-[4-(4-Methyl-2-oxo-2H-pyridin-1-yl)-cyclohexyl]-azetidin-3-ylcarbamoyl}-methyl)-3-trifluoromethyl-benzamide] is 65-fold lower in IC50: 7100 nM for the first, 110 nM for the second. The second is the more potent here.

O=C(CNC(=O)c1cccc(C(F)(F)F)c1)NC1CN(C2CCC(Oc3cccnn3)CC2)C1 (stereo not drawn) [Example 23, N-({1-[4-(Pyridazin-3-yloxy)-cyclohexyl]-azetidin-3-ylcarbamoyl}-methyl)-3-trifluoromethyl-benzamide] and O=C(CNC(=O)c1cccc(C(F)(F)F)c1)NC1CN(C2CCC(Oc3ccc4c(c3)OCO4)CC2)C1 (stereo not drawn) [Example 33, N-({1-[4-(Benzo[1,3]dioxol-5-yloxy)-cyclohexyl]-azetidin-3-ylcarbamoyl}-methyl)-3-trifluoromethyl-benzamide] are the same in IC50: 410 nM for the first, 410 nM for the second.

First: O=C(CNC(=O)c1cccc(C(F)(F)F)c1)NC1CN(C2CCC(n3cc(I)cn3)CC2)C1 (stereo not drawn) [Example 28, N-({1-[4-(4-Iodo-pyrazol-1-yl)-cyclohexyl]-azetidin-3-ylcarbamoyl}-methyl)-3-trifluoromethyl-benzamide]
Second: Cc1ccc(C)n1C1CCC(N2CC(NC(=O)CNC(=O)c3cccc(C(F)(F)F)c3)C2)CC1 (stereo not drawn) [Example 37, N-({1-[4-(2,5-Dimethyl-pyrrol-1-yl)-cyclohexyl]-azetidin-3-ylcarbamoyl}-methyl)-3-trifluoromethyl-benzamide]
The IC50 of the first is 82-fold lower: 110 nM for the first, 9000 nM for the second.

Compared with O=C(CNC(=O)c1cccc(C(F)(F)F)c1)NC1CN(C2CCC(NC(=O)c3ccc4c(c3)OCO4)CC2)C1 (stereo not drawn) [Example 35, Benzo[1,3]dioxole-5-carboxylic acid (4-{3-[2-(3-trifluoromethyl-benzoylamino)-acetylamino]-azetidin-1-yl}-cyclohexyl)-amide], O=C(CNC(=O)c1cccc(C(F)(F)F)c1)NC1CN(C2CCC(NC(=O)Nc3ccc4c(c3)OCO4)CC2)C1 (stereo not drawn) [Example 36, N-({1-[4-(3-Benzo[1,3]dioxol-5-yl-ureido)-cyclohexyl]-azetidin-3-ylcarbamoyl}-methyl)-3-trifluoromethyl-benzamide] is 3.5-fold higher in IC50: 430 nM for the first, 1500 nM for the second.

Reference: US8324186B2, “4-azetidinyl-1-heteroatom linked-cyclohexane antagonists of CCR2” (Janssen Pharmaceutica N.V., priority 2009, dated 2012)
